Laboratory results published in PMC4800267 (Assay and Drug Development Technologies, 2016).
Values joined by “and” are separate entries in the source; they are usually repeats but may differ in a detail not shown here. Equal entries are not always repeated. “Also recorded” adds a separate entry of the source. Where two headings read alike, the source gives them in different places.

Assays:
hNav1.3 = hNav1.3 (Homo sapiens, UniProt Q9NY46); assay type: cell-based; conditions: inactivated-state Peak 2
hNav1.7 = hNav1.7 (Homo sapiens, UniProt Q15858); conditions: hNav1.7 in Xenopus oocytes; cited from earlier work
mNav1.6 = mNav1.6 in Xenopus oocytes; cited from earlier work
rNav1.4 = rNav1.4 in Xenopus oocytes; cited from earlier work
hNav1.5 = hNav1.5 on QPatch; cited from earlier work
[1] = system: endogenous TTX-S currents in ND7-23 cells; experiment: cells; assay type: cell-based, rodent; conditions: for effect on resting- or inactivated-state TTX-S currents: 300 nM
Nav1.3 = conditions: read-out: IC50 Nav1.3; cited from earlier work
Nav1.1 = conditions: read-out: IC50 Nav1.1; cited from earlier work
rat Nav1.7 = conditions: cited from earlier work

Chain of hNav1.7 (Q15858 whole entry): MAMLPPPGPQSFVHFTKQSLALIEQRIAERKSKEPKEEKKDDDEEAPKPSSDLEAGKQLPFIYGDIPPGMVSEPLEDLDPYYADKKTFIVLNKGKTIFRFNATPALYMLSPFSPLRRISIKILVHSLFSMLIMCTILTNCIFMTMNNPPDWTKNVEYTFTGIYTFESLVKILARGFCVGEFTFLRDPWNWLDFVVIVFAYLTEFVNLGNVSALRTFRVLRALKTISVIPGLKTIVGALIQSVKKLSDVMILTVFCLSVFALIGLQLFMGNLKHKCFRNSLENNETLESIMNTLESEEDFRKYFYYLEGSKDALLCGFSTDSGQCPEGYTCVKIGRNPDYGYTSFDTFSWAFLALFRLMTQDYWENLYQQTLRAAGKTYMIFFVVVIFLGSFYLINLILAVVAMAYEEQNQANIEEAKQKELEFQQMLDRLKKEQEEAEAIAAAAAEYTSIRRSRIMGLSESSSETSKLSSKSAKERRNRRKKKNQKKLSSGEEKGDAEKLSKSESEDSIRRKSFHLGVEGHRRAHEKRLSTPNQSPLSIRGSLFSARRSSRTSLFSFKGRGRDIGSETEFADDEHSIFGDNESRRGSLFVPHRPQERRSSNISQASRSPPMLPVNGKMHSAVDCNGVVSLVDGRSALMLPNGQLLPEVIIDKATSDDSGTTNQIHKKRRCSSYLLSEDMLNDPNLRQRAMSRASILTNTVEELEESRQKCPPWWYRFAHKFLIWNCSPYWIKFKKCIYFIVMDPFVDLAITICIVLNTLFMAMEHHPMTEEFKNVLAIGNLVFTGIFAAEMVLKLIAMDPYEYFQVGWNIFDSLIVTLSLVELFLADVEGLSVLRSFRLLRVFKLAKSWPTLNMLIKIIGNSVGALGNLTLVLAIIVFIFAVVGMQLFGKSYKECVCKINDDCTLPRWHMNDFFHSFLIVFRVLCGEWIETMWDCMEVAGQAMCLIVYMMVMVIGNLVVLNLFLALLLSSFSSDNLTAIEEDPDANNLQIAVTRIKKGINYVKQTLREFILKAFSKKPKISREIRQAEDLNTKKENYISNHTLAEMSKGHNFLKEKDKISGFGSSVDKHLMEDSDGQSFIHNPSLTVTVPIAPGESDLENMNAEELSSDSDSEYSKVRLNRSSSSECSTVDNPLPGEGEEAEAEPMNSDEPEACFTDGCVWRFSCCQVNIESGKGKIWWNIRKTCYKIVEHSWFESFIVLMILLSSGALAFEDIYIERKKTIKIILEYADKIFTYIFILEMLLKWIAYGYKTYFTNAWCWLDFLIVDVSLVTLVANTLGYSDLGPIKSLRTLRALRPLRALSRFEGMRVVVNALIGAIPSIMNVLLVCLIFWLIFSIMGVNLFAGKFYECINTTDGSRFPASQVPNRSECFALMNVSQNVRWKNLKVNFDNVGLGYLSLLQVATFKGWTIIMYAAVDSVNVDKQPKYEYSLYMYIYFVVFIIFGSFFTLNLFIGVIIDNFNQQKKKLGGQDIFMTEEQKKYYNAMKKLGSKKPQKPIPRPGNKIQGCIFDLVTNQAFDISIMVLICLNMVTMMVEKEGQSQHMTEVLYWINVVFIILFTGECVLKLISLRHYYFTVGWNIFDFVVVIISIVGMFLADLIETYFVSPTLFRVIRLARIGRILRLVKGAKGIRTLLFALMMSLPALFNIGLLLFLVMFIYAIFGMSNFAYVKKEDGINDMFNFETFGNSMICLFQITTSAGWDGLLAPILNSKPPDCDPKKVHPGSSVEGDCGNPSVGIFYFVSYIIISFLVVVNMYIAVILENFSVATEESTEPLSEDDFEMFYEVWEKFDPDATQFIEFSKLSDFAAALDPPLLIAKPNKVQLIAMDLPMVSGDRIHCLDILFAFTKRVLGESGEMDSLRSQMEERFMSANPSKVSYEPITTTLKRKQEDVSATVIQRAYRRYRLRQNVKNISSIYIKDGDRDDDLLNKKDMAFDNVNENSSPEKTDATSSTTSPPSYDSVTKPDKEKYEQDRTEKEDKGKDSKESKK
Chain of hNav1.3 (Q9NY46 whole entry): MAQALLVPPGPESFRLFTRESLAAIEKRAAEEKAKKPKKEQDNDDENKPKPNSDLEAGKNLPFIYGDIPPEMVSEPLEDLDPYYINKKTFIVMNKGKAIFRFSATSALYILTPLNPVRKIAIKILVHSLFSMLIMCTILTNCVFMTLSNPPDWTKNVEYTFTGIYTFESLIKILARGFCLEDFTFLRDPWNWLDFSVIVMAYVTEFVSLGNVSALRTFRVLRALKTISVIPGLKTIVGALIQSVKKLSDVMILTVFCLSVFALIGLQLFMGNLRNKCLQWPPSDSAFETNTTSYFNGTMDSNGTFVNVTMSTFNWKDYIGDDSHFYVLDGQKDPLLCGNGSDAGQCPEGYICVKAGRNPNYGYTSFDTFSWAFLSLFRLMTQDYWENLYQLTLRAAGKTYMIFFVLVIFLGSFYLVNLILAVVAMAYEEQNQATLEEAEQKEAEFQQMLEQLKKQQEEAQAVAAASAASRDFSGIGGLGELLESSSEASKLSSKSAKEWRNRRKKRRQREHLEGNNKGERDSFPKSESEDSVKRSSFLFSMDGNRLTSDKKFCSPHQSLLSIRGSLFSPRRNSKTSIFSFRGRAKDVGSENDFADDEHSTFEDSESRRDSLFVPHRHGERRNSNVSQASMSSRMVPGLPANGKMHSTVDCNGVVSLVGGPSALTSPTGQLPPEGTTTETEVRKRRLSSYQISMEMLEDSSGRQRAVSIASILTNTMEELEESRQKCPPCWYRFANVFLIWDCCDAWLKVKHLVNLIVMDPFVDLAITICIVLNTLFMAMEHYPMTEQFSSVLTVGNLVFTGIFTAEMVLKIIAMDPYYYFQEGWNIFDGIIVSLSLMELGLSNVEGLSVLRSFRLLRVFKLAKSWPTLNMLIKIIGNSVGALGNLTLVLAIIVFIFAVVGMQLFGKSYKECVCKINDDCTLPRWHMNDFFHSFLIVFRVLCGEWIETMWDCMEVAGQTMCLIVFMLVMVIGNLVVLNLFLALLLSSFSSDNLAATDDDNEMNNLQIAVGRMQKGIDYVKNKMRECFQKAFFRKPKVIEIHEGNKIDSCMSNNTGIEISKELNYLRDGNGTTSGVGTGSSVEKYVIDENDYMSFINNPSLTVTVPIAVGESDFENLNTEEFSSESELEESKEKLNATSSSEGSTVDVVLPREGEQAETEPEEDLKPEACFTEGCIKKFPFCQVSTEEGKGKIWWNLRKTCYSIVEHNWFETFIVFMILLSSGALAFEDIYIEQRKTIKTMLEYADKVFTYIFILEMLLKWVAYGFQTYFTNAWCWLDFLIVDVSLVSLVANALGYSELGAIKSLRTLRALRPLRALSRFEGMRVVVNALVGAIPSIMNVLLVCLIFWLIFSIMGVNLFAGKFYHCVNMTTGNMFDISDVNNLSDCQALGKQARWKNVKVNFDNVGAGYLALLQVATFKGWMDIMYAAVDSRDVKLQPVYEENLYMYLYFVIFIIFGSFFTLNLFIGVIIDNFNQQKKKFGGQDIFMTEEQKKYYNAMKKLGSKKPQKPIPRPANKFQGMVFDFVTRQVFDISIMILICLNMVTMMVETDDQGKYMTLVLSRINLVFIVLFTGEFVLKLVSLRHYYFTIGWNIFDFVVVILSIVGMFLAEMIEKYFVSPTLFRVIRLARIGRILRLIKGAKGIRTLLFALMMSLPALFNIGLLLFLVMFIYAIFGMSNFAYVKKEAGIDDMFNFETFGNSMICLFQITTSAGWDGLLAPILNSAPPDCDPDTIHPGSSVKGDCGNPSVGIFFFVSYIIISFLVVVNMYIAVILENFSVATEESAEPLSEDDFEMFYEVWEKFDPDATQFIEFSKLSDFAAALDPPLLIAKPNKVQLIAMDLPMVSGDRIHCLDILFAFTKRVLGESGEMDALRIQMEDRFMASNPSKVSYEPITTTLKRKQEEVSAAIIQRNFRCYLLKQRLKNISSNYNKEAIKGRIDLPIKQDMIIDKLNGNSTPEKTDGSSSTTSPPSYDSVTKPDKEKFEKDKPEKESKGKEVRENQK

Compound	hillslope, Peak 2 (hNav1.3)	effects on resting or inactivated current amplitudes (hNav1.7)	effects on resting or inactivated current amplitudes (mNav1.6)	effects on resting or inactivated current amplitudes (rNav1.4)	effects on resting or inactivated current amplitudes (hNav1.5)	effect on resting- or inactivated-state TTX-S currents [1]	effect on resting- or inactivated-state TTX-S currents ([1]; listed as Icagen Nav1.3 antagonist)	reduction of resting-state Peak 1 TTX-S current ([1]; 1 μM, Peak 1, mean ± SEM)	reduction of inactivated Peak 2 TTX-S current ([1]; 1 μM, Peak 2, mean ± SEM)	inhibition at 0.3 µM ([1]; ND7/23, read-out: ND7-23 TTX-S % Inhibition, Peak 1)	inhibition at 0.3 µM ([1]; ND7/23, read-out: ND7-23 TTX-S % Inhibition, Peak 2)	IC50 ([1]; ND7/23, read-out: ND7-23 TTX-S IC50, Peak 1)	IC50 ([1]; ND7/23, read-out: ND7-23 TTX-S IC50, Peak 2)	inhibition at 0.3 µM ([1]; ND7/23, read-out: inhibition of inward TTX-S currents)	inhibition of TTX-S currents, maximum over all concentrations tested ([1]; all test concentrations)	IC50 (Nav1.3)	IC50 (Nav1.1)	potency against rat Nav1.7 channels (rat Nav1.7)
O=C(Nc1ccc(S(=O)(=O)Nc2nccs2)cc1)[C@@H]1C[C@H]1c1ccccc1 [Icagen compound 68, (1R,2R)-2-phenyl-N-(4-(N-(thiazol-2-yl)sulfamoyl)phenyl)cyclopropane-1-carboxamide]	1.2	no significant effects	no significant effects	no significant effects	no significant effects	no effect; also recorded: negligible effects	no significant effect	0.7% ± 3.0%	8.5% ± 1.7% and 8.5%	0.8%	-0.5%	> 10000 nM	> 10000 nM	~0.5%	< 50%			
O=C(Nc1ccc(S(=O)(=O)Nc2nccs2)cc1)C(c1ccccc1)c1ccccc1 [ICA-121431]																~20 nM	~20 nM	low nanomolar potency
